Earlier results on 50 compounds are cited in paper PMC6376154 (International Journal for Parasitology: Drugs and Drug …, 2019).

Like-named read-outs stand apart in the source and are kept apart here.

For the data set, the system named is P. falciparum 3D7 asexual blood stage. The note with it: cited from earlier work.
[1] abbreviates: MMV Malaria Box data sheet (supplement mmc2.xls), ref MMV data sheet.
Setting [2] is: MMV Malaria Box data sheet (supplement mmc2.xls), ref MMV data sheet, read-out: EC50_nM.
[3] abbreviates: MMV Malaria Box sheet, ref MMV data sheets.
[4] abbreviates: MMV Malaria Box sheet, ref MMV data sheets, read-out: EC50_nM.
The mark [5] stands for this setting: source StJude, ref ChEMBL_NTD, read-out: CHEMBL EC50.
Where [6] appears, read: ChEMBL-NTD value per source (GNF, GSK, StJude), several values in a cell follow the order of the sources, read-out: CHEMBL EC50.
The mark [7] stands for this setting: MMV Malaria Box data sheet, ref MMV data sheets.
[8] abbreviates: MMV Malaria Box data sheet, ref MMV data sheets, read-out: EC50_nM.
The mark [9] stands for this setting: source GNF, ref ChEMBL_NTD, read-out: CHEMBL EC50.
Setting [10] is: source GSK, ref ChEMBL_NTD, read-out: CHEMBL EC50.
Setting [11] is: value(s) per source (GSK, GNF, StJude), separated by semicolon, ref ChEMBL-NTD, read-out: CHEMBL EC50.

As to `CCN(CC)CCn1c(=N)n(CC(O)c2ccc(Cl)c(Cl)c2)c2ccccc21` (stereo not drawn) [MMV000248], under setting [1], the “percent_inh @ 5 uM” value is 97%. Further, the EC50 under setting [2] was 718 nM.

With `CCOc1ccc(Nc2c3ccccc3nc3ccccc23)cc1` [MMV000304], the “percent_inh @ 5 uM” value under setting [3] is on record as 97%. The EC50 was 1060 nM under setting [4] and 5720 nM under setting [5].

In the case of `Cc1ccc2nc(C)cc(Nc3cccc(C(F)(F)F)c3)c2c1` [MMV000326], under setting [3], the “percent_inh @ 5 uM” value is on record as 98%. The EC50 reads like this: under setting [4], 1170 nM; under setting [5], 879 nM.

For the compound `CCn1c2c(c(=N)c3c1CCC3)CCCC2` [MMV000340], the EC50 under setting [6] was 3120 nM.

Regarding `CC(C)(C)c1ccc2c(c1)CN(Cc1ccc(Cl)cc1)CO2` [MMV000442], under setting [3], the “percent_inh @ 5 uM” value is given as 98%. Besides, the EC50 under setting [4] is 362 nM and the EC50 under setting [5] is 255 nM.

For the compound `CCOc1ccc2c(c1)CN(Cc1ccc(Cl)cc1)CO2` [MMV000443], the “percent_inh @ 5 uM” value under setting [3] was 97%. Moreover, the EC50 is 439 nM under setting [4] and 1490 nM under setting [5].

For `CCCCCn1c(=N)n(CC(O)COc2cccc(C)c2)c2ccccc21` (stereo not drawn) [MMV000444], the “percent_inh @ 5 uM” value under setting [3] is reported as 96%. The EC50 under setting [5] was 2650 nM.

With `CCCCCCn1c(=N)n(CC(O)COc2cccc(C)c2)c2ccccc21` (stereo not drawn) [MMV000445], the “percent_inh @ 5 uM” value under setting [3] is on record as 98%. The EC50 is 1140 nM under setting [4] and 1970 nM under setting [5].

For the compound `CN(C)CCCNc1c2ccccc2nc2ccccc12` [MMV000448], under setting [7], the “percent_inh @ 5 uM” value is reported as 95%. Moreover, the EC50 is 235 nM under setting [8], 32.7 nM under setting [9], 1040 nM under setting [10] and 531 nM under setting [5].

For `CCOc1cc2c(cc1OCC)C(c1cc(Cl)c(O)c(OCC)c1)NCC2` (stereo not drawn) [MMV000481], the “percent_inh @ 5 uM” value under setting [3] is 96%. The EC50 under setting [4] is 1330 nM and the EC50 under setting [5] was 3010 nM.

As to `CCOc1cc2c(cc1OCC)C(c1cc(C)c(O)c(C)c1)NCC2` (stereo not drawn) [MMV000483], under setting [3], the “percent_inh @ 5 uM” value was 97%. Moreover, the EC50 reads like this: under setting [4], 683 nM; under setting [5], 1830 nM.

Turning to `CCN(CC)c1cc(C)c2cc(NC(=O)c3cccc(OC)c3)ccc2n1` [MMV000498], the “percent_inh @ 5 uM” value under setting [1] is listed as 97%. For the same compound, the EC50 under setting [11] was 4770 nM.

In the case of `CCCN(CCC)CCCNC(=O)c1cc2c(-c3ccc(OC)c(OC)c3)nn(C)c2s1` [MMV000561], the “percent_inh @ 5 uM” value under setting [1] is recorded as 98%. The EC50 is 1430 nM under setting [2] and 4040 nM under setting [11].

In the case of `COc1ccc(C2Sc3ccccc3N=C3C2=C(O)c2ccccc23)cc1` (stereo not drawn) [MMV000563], the “percent_inh @ 5 uM” value under setting [7] was 96%. The EC50 runs as follows: under setting [8], 845 nM; under setting [9], 238 nM.

Regarding `CCc1ccc(Nc2cc(C)c3ccc(O)cc3n2)cc1` [MMV000570], under setting [7], the “percent_inh @ 5 uM” value is recorded as 98%. Further, the EC50 under setting [8] is 194 nM and the EC50 under setting [5] was 732 nM.

On to `COc1ccc(-c2cc(=O)oc3c4c(ccc23)OCN(Cc2ccc(F)cc2)C4)cc1` [MMV000604], for which the “percent_inh @ 5 uM” value under setting [3] is 96%. Further, the EC50 reads like this: under setting [4], 735 nM; under setting [5], 5210 nM.

On to `COc1ccc(C(O)(CCC(C)C)C(CN2CCOCC2)c2ccc(Cl)cc2)cc1` (stereo not drawn) [MMV000617], for which the EC50 under setting [6] was 4610 nM.

Regarding `CCCCC(O)(c1ccc(Cl)cc1)C(CN1CCOCC1)c1ccc(Cl)cc1` (stereo not drawn) [MMV000619], the “percent_inh @ 5 uM” value under setting [3] is 98%. In addition, the EC50 reads like this: under setting [4], 1380 nM; under setting [5], 4010 nM.

With `CC(O)(c1ccc(Cl)cc1)C(CN1CCCCC1)c1ccccc1` (stereo not drawn) [MMV000620], under setting [7], the “percent_inh @ 5 uM” value is 94%. Besides, under setting [5], the EC50 is 916 nM.

In the case of `CCCCCCC(O)(c1ccc(F)cc1)C(CN1CCOCC1)c1ccccc1` (stereo not drawn) [MMV000621], the “percent_inh @ 5 uM” value under setting [3] is given as 93%. The EC50 under setting [5] was 3180 nM.

For `CC1CCCCN1CCCNC(=O)c1ccc2c(c1)sc1nc(-c3ccc(F)cc3)cn12` (stereo not drawn) [MMV000634], the “percent_inh @ 5 uM” value under setting [7] is 98%. Also, the EC50 is 648 nM under setting [8] and 634 nM under setting [5].

For the compound `COc1ccc(NC(=O)C2c3ccccc3C(=O)N(CC(C)C)C2c2cccs2)cc1Cl` (stereo not drawn) [MMV000642], under setting [7], the “percent_inh @ 5 uM” value is reported as 100%. Moreover, the EC50 under setting [8] is 20.2 nM, the EC50 under setting [9] is 91.4 nM and the EC50 under setting [5] is 119 nM.

On to `COc1ccccc1CNC(=O)C1c2ccccc2C(=O)N(CC(C)C)C1c1cccs1` (stereo not drawn) [MMV000648], for which the “percent_inh @ 5 uM” value under setting [1] is given as 97%. Further, the EC50 under setting [11] was 3160 nM.

For the compound `CCOc1ccccc1CNC(=O)C1c2ccccc2C(=O)N(CC(C)C)C1c1cccs1` (stereo not drawn) [MMV000653], under setting [7], the “percent_inh @ 5 uM” value is reported as 97%. Also, the EC50 runs as follows: under setting [8], 1320 nM; under setting [5], 1430 nM.

As for `COc1ccc(NC(=O)C2c3ccccc3C(=O)N(CC(C)C)C2c2cccs2)cc1` (stereo not drawn) [MMV000662], the “percent_inh @ 5 uM” value under setting [7] is on record as 100%. Moreover, the EC50 by setting is: under setting [8], 36.7 nM; under setting [5], 102 nM.

Consider `Cc1ccc(C2CC(C(F)(F)F)n3nc(C(=O)N4CCN(C(c5ccccc5)c5ccccc5)CC4)cc3N2)cc1` (stereo not drawn) [MMV000699], for which the “percent_inh @ 5 uM” value under setting [3] is 98%. Also, the EC50 is 454 nM under setting [4] and 668 nM under setting [5].

Consider `Cc1ccnc(NC(c2cccc(OCc3ccccc3)c2)c2ccc3cccnc3c2O)c1` (stereo not drawn) [MMV000720], for which, under setting [3], the “percent_inh @ 5 uM” value is 97%. The EC50 by setting is: under setting [4], 1020 nM; under setting [10], 864 nM; under setting [5], 1810 nM.

For `Oc1c(CN2CCN(c3ccccc3F)CC2)cc(Br)c2cccnc12` [MMV000760], under setting [3], the “percent_inh @ 5 uM” value is listed as 91%. Moreover, the EC50 under setting [5] is 3760 nM.

As to `CCCOCc1cc(CN2CCN(c3cccc(Cl)c3)CC2)c(O)c2ncccc12` [MMV000787], the EC50 under setting [6] was 1100 nM.

For `CC(C)OCc1cc(CN2CCN(c3cccc(Cl)c3)CC2)c(O)c2ncccc12` [MMV000788], under setting [1], the “percent_inh @ 5 uM” value is 98%. Further, the EC50 was 697 nM under setting [2] and 941 nM under setting [11].

As to `OC(CNCc1ccccc1)Cn1c2ccccc2c2ccccc21` (stereo not drawn) [MMV000839], under setting [3], the “percent_inh @ 5 uM” value is 95%. For the same compound, the EC50 is 1080 nM under setting [4] and 3760 nM under setting [5].

Regarding `OC(CNC1CCCC1)Cn1c2ccccc2c2ccccc21` (stereo not drawn) [MMV000848], the “percent_inh @ 5 uM” value under setting [1] was 97%. Besides, the EC50 runs as follows: under setting [2], 660 nM; under setting [11], 1080 nM.

Turning to `Cc1ccc(NC(=O)Nc2cccc(Cl)c2)cc1F` [MMV000911], the “percent_inh @ 5 uM” value under setting [1] is listed as 52%. For the same compound, the EC50 under setting [11] was 15000 nM.

On to `COc1ccc2c(c1OC)C(=O)N1c3ccccc3N=C(c3ccc(C)cc3)CC21` (stereo not drawn) [MMV000917], for which the “percent_inh @ 5 uM” value under setting [3] was 93%. In addition, the EC50 under setting [4] is 1240 nM and the EC50 under setting [5] is 2530 nM.

In the case of `COc1ccc(Nc2nc(NCc3ccccc3)c3ccccc3n2)cc1` [MMV000963], the EC50 under setting [4] is 589 nM, the EC50 under setting [9] was 212 nM and the EC50 under setting [5] was 1310 nM.

For `O=C1CC(O)(C(F)(F)C(F)(F)F)Oc2ccccc21` (stereo not drawn) [MMV000972], under setting [3], the “percent_inh @ 5 uM” value was 95%. The EC50 under setting [5] is 2570 nM.

With `Cc1ccc(Nc2nc(NCCO)c3ccccc3n2)cc1C` [MMV001038], the EC50 by setting is: under setting [8], 428 nM; under setting [9], 175 nM; under setting [5], 843 nM.

In the case of `CC(C)c1ccc(CNCC(O)c2ccccc2)cc1` (stereo not drawn) [MMV001049], the “percent_inh @ 5 uM” value under setting [3] is listed as 96%. In addition, the EC50 reads like this: under setting [4], 1260 nM; under setting [5], 1350 nM.

As for `CCOc1cccc2sc(N(Cc3cccnc3)C(=O)C3CCCCC3)nc12` [MMV001230], the “percent_inh @ 5 uM” value under setting [1] is reported as 94%. Under setting [11], the EC50 is 3040 nM.

`COc1ccc2sc(N(Cc3cccnc3)C(=O)c3ccc(C#N)cc3)nc2c1` [MMV001239]: under setting [6], the EC50 was 15000 nM.

On to `COc1ccc(C)c2sc(N(Cc3cccnc3)C(=O)c3ccc(C#N)cc3)nc12` [MMV001241], for which the “percent_inh @ 5 uM” value under setting [3] is 91%. In addition, the EC50 under setting [5] was 15000 nM.

As for `CSc1ccccc1C(=O)Nc1nc(-c2ccccn2)cs1` [MMV001246], the “percent_inh @ 5 uM” value under setting [7] is given as 98%. Further, the EC50 reads like this: under setting [8], 206 nM; under setting [5], 6820 nM.

Take `CCCCc1ccc(NS(=O)(=O)c2cc3c4c(c2)CCN4C(=O)CC3)cc1` [MMV001255]: under setting [7], the “percent_inh @ 5 uM” value was 96%. Also, the EC50 runs as follows: under setting [8], 538 nM; under setting [5], 15000 nM.

Regarding `O=C(Nc1ccc(Br)cc1)Nc1cccc(Cl)c1` [MMV001318], the “percent_inh @ 5 uM” value under setting [3] is listed as 94%. The EC50 under setting [5] was 15000 nM.

For the compound `CC1CC(C)CN(C(=O)c2ccc(Cl)cc2Cl)C1` (stereo not drawn) [MMV001344], under setting [1], the “percent_inh @ 5 uM” value is 95%. In addition, the EC50 is, setting by setting: under setting [2], 756 nM; under setting [11], 1320 nM.

With `CCN(CC)CCNc1ccnc2cc(Cl)ccc12` [MMV006087], the EC50 was 58.1 nM under setting [8] and 7.16 nM under setting [9].

On to `c1ccc(CNc2nc(Nc3ccccc3)nc3ccccc23)cc1` [MMV006169], for which the EC50 under setting [6] is 158 nM.

Turning to `CN1CCN(c2ccc(Nc3c4ccccc4nc4ccccc34)cc2)CC1` [MMV006172], the “percent_inh @ 5 uM” value under setting [7] is listed as 97%. The EC50 runs as follows: under setting [8], 142 nM; under setting [9], 56.7 nM; under setting [10], 645 nM.

`O=C(NCc1ccco1)C1CCN(S(=O)(=O)c2ccc(Cl)cc2)CC1` [MMV006188]: under setting [1], the “percent_inh @ 5 uM” value is on record as 94%. Further, the EC50 reads like this: under setting [2], 890 nM; under setting [11], 514 nM.

Consider `Cc1cc(NCCN2CCCCC2)c2ccc3ccccc3c2n1` [MMV006203], for which the “percent_inh @ 5 uM” value under setting [7] is listed as 99%. Moreover, the EC50 runs as follows: under setting [8], 300 nM; under setting [9], 44.1 nM.
